Source: ChEMBL document CHEMBL1201862, “PubChem BioAssay data set” (2004)
Where a name gives a salt, the structure may show the parent alone. Activity calls are given as the source filed them.

What was measured:
[1] = system: Streptococcus sp. 'group A'; assay: growth inhibition of control SK(-) GAS strain, dose response, counter-screen for streptokinase expression inhibitor project, luminescence, kanamycin, BacTiterGlo, confirmation (AID 1900); assay type: functional, organism-based
[2] = Glucagon-like peptide 1 release potency, NCI-H716 cell line, dose-response, half-maximal inhibitory concentration (AID 1117344); assay type: functional, cell-based
[3] = system: Streptococcus; assay: Group A Streptococcus viability loss, dose response, counter-screen for streptokinase expression inhibitor project, luminescence, BacTiterGlo (AID 1915); assay type: functional, organism-based; details: read-out: EC50;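 also: potency for reduction of bacterial viability or growth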
[4] = half-maximal inhibitory concentration for glucagon-like peptide-1 release, STC-1 cell line, dose-response (AID 1117345); assay type: functional, cell-based
[5] = P. falciparum Dd2 growth inhibitors, dose response, SYBR Green, cherry-picked samples (AID 1159567); assay type: functional, cell-based
[6] = Plasmodium falciparum Dd2 Sybr green parasite growth Measured in Cell-Based and Microorganism Combination System Using Plate Reader - 2153-01_Inhibitor_Dose_DryPowder_Activity_Set3.; assay type: functional
[7] = P. falciparum ATP4 D1247Y mutant growth inhibitors, dose response, NITD609-resistant line, SYBR Green, dry powder (AID 1159571); assay type: functional, cell-based;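 also: parasites synchronized at ring stage by sorbitol before testing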
[8] = P. falciparum Dd2 growth inhibitors, dose response, SYBR Green, dry powder samples, set 9 (AID 1159568); assay type: functional, cell-based
[9] = P. falciparum 3D7-ScDHODH growth inhibitors, dose response, SYBR Green, dry powder samples (AID 1159570); assay type: functional, cell-based;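 also: parasite growth measured after 72 hours of compound exposure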
[10] = HepG2 cell cytotoxicity, dose response, cytotoxicity control, plate reader, dry powder samples (AID 1159569); assay type: functional, cell-based;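 also: inhibitor potency with signal falling toward the positive control level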
[11] = P. falciparum Dd2 growth inhibitors, dose response, SYBR Green, dry powder samples (AID 1159566); assay type: functional, cell-based;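 also: potency for growth inhibition with lower SYBR green DNA signal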
[12] = molecular target: T1, RNA-binding protein pos-1 (Caenorhabditis elegans, UniProt G5EF15); assay: inhibitors of POS-1/mex-3 RNA binding, dose response, biochemical, fluorescence polarization (AID 1964);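 also: purified POS-1 fused to maltose binding protein made in E. coli; potency of compounds blocking POS-1 binding to fluorescent RNA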
T1 sequence (G5EF15 whole entry): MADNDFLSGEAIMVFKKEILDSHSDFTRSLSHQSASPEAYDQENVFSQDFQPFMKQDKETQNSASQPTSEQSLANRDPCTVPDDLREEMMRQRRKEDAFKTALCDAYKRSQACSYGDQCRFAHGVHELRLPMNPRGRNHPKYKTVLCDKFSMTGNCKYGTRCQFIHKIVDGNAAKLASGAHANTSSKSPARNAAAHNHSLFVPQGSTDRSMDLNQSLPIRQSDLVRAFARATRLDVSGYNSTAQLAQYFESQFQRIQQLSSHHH

[13] = molecular target: Large T antigen (Simian virus 40, UniProt P03070); assay type: functional, Betapolyomavirus macacae;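 also: Confirmatory-stage PubChem screen for compounds that inhibit SV40 T antigen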
[14] = molecular target: T2, Carboxy-terminal domain RNA polymerase II polypeptide A small phosphatase 1 (Homo sapiens, UniProt Q9GZU7); assay: inhibitors of CTDSP1, concentration-response testing, biochemical assay, absorbance-based, actives from ultra-high-throughput screening (AID 540297); assay type: functional
T2 sequence (Q9GZU7 whole entry): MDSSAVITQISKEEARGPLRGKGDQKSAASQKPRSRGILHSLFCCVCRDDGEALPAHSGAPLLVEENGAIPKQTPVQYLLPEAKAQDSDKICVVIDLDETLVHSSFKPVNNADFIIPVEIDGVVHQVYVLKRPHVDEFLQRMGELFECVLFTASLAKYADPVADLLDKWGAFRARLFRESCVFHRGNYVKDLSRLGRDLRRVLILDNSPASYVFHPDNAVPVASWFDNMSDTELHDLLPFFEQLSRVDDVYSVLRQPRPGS

[15] = molecular target: Long-chain-fatty-acid--AMP ligase FadD28 (Mycobacterium tuberculosis, UniProt P9WQ59); assay: Fluorescence polarization aasay to screen for inhibitors that compete for the binding of FadD28 to a bisubstrate Measured in Biochemical System Using Plate Reader - 2147-01_Inhibitor_Dose_CherryPick_Activity.; assay type: functional, Mycobacterium tuberculosis H37Rv
[16] = molecular target: T3, Zinc finger protein mex-5 (Caenorhabditis elegans, UniProt Q9XUB2); assay: MEX-5/TCR-2 RNA interaction inhibitors, dose response, biochemical, C. elegans, fluorescence polarization (AID 1960)
T3 sequence (Q9XUB2 whole entry): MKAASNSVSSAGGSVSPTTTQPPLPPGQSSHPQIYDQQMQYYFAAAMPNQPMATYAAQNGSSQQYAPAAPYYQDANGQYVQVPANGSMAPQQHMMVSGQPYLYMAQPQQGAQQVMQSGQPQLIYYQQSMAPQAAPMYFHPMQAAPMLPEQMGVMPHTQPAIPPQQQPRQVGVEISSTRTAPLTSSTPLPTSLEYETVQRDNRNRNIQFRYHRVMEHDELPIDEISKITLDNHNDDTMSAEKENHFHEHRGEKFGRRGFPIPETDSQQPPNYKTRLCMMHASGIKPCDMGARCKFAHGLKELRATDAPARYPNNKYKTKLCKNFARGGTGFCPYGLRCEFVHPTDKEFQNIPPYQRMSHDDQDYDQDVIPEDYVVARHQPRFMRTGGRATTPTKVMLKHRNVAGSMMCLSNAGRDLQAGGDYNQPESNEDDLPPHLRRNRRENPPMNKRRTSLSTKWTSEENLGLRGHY

[17] = molecular target: DNA (cytosine-5)-methyltransferase 1 (Homo sapiens, UniProt P26358); assay: DNMT1 methyltransferase inhibitors, confirmation, biochemical, fluorescent molecular beacon (AID 602386); assay type: functional
[18] = molecular target: Bifunctional protein GlmU (Mycobacterium tuberculosis, UniProt P9WMN3); assay: Inhibitors of Mycobacterial Glucosamine-1-phosphate acetyl transferase (GlmU). Secondary screen.; set-up: species or system Mycobacterium tuberculosis H37Rv
[19] = molecular target: Voltage-dependent T-type calcium channel subunit alpha-1H (Homo sapiens, UniProt O95180); assay type: functional;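 also: channel activity triggered by adding a high calcium stimulation buffer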
[20] = Vero cell cytotoxicity, dose response, cytotoxicity control for Vif-APOBEC3G degradation inhibitor project, Vero cells (AID 1117358); assay type: functional; details: Human immunodeficiency virus 1, Vero
[21] = inhibitors of firefly luciferase expression or activity, dose response, H4 neuroglioma cells, luminescence (AID 1990); assay type: functional, cell-based
[22] = Luminescence Cell-Based Dose Response HTS to Identify Inhibitors of 5'UTR Stem-Loop Driven Prion Protein mRNA Translation in H4 Neuroglioblastoma Cells. [Related pubchem assays: 1827 (Project Summary), 1813 (Primary HTS)]; assay type: functional
[23] = inhibitors of SNCA 5'UTR-driven reporter translation, confirmation, H4 neuroglioma cells, luminescence (AID 1988); assay type: functional, cell-based
[24] = growth suppression of PTEN-null colon cells, dose response, cell-based, HCT116 PTEN knockout (AID 1047); assay type: functional;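 also: HCT116 colon tumor cells with PTEN knocked out; cells exposed to compound for 60 hours before readout; potency for loss of cell viability measured by luminescence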
[25] = growth suppression of beta-catenin-knockout colon cells, dose response, cell-based, HCT116, human colon tumor (AID 1045); assay type: functional;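 also: HCT116 colon tumor cells with beta catenin knocked out; cells exposed to compound for 60 hours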
[26] = P. falciparum late gametocyte killing, dose response, luminescence (AID 1117278); assay type: functional, cell-based;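 also: gametocytes exposed to compound for 24 hours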
[27] = Jurkat T cell cytotoxicity, dose response, cytotoxicity control for P. falciparum gametocyte viability project, luminescence (AID 1117277); assay type: functional, cell-based;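 also: potency reflects loss of cellular ATP meaning fewer viable cells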
[28] = Orthopox viral replication plaque formation Measured in Cell-Based and Microorganism Combination System Using Imaging - 2142-05_Inhibitor_Dose_DryPowder_Activity.; assay type: functional
[29] = inhibitors of orthopox intermediate gene expression, dose response, cell-based, single fluorophore reporter, dry powder (AID 1117271); assay type: functional
[30] = A549 cell cytotoxicity, dose response, CellTiter-Glo luminescence, dry powder, set 17 (AID 1117284); assay type: functional, cell-based
[31] = Single fluorophore orthopox expression reporter, late gene expression Measured in Cell-Based and Microorganism Combination System Using Plate Reader - 2142-08_Inhibitor_Dose_DryPowder_Activity.; assay type: functional
[32] = molecular target: T4, Trace amine-associated receptor 1 (Homo sapiens, UniProt Q96RJ0); assay: Fluorescence-based cell-based high throughput dose response assay to identify agonists of the human trace amine associated receptor 1 (TAAR1).; assay type: functional
T4 sequence (Q96RJ0 whole entry): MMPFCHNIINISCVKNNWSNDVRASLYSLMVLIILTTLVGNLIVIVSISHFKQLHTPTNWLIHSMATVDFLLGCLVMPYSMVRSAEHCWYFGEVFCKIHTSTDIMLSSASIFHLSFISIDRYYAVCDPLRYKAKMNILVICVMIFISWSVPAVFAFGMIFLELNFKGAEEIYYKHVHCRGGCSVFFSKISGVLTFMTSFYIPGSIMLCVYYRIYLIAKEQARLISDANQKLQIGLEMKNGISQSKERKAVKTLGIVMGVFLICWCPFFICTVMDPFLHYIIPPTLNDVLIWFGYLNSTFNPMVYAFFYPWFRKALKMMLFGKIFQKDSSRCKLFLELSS

[33] = Dose-response inhibition of insulin secretion in a rat insulinoma line at 5 mM glucose (AID 1117331); assay type: functional, cell-based; details: INS-1E
[34] = cells; assay type: functional, cell-based
[35] = molecular target: T4, Trace amine-associated receptor 1; assay: Counterscreen for agonists of the human trace amine associated receptor 1 (hTAAR1): Fluorescence-based cell-based high throughput dose response assay to identify hTAAR1 agonist that also desensitize TAAR1 receptor response.; assay type: functional
[36] = cells; assay type: functional, cell-based; remark: listed apart in the source
[37] = cells; assay type: functional, cell-based; details: INS-1E
[38] = HeLa 4N DNA content increase, dose response, cell-based, IC50 (AID 1117351); assay type: functional
[39] = HeLa 2N DNA content increase, dose response, cell-based, IC50 (AID 1117349); assay type: functional
[40] = molecular target: Bcl-2-like protein 10 (Homo sapiens, UniProt Q9HD36); assay: displacers of TR3 peptide from Bcl-B, primary screen, selectivity assay for Bfl-1 inhibitor project, biochemical, fluorescence polarization, FITC-TR3 peptide (AID 748);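 also: fluorescence polarization from a fluorescein-labelled TR3 peptide binding purified Bcl-B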
[41] = Artemis endonuclease inhibitor potency, dose response, biochemical, fluorescence intensity (AID 720701); assay type: functional;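 also: Artemis endonuclease enzyme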
[42] = molecular target: NADPH oxidase 1 (Homo sapiens, UniProt Q9Y5S8); assay: Late-stage luminescence-based cell-based dose response assay to identify inhibitors of NADPH oxidase 1 (NOX1): Synthesized analogs.; assay type: functional
[43] = HepG2 cell cytotoxicity, dose response, cytotoxicity control, luminescence, dry powder, set 9 (AID 743358); assay type: functional, cell-based
[44] = HEK293 cell cytotoxicity, dose response, cytotoxicity control, luminescence, dry powder, set 12 (AID 743354); assay type: functional, cell-based

Voltage-dependent T-type calcium channel subunit alpha-1H, sequence (O95180 whole entry): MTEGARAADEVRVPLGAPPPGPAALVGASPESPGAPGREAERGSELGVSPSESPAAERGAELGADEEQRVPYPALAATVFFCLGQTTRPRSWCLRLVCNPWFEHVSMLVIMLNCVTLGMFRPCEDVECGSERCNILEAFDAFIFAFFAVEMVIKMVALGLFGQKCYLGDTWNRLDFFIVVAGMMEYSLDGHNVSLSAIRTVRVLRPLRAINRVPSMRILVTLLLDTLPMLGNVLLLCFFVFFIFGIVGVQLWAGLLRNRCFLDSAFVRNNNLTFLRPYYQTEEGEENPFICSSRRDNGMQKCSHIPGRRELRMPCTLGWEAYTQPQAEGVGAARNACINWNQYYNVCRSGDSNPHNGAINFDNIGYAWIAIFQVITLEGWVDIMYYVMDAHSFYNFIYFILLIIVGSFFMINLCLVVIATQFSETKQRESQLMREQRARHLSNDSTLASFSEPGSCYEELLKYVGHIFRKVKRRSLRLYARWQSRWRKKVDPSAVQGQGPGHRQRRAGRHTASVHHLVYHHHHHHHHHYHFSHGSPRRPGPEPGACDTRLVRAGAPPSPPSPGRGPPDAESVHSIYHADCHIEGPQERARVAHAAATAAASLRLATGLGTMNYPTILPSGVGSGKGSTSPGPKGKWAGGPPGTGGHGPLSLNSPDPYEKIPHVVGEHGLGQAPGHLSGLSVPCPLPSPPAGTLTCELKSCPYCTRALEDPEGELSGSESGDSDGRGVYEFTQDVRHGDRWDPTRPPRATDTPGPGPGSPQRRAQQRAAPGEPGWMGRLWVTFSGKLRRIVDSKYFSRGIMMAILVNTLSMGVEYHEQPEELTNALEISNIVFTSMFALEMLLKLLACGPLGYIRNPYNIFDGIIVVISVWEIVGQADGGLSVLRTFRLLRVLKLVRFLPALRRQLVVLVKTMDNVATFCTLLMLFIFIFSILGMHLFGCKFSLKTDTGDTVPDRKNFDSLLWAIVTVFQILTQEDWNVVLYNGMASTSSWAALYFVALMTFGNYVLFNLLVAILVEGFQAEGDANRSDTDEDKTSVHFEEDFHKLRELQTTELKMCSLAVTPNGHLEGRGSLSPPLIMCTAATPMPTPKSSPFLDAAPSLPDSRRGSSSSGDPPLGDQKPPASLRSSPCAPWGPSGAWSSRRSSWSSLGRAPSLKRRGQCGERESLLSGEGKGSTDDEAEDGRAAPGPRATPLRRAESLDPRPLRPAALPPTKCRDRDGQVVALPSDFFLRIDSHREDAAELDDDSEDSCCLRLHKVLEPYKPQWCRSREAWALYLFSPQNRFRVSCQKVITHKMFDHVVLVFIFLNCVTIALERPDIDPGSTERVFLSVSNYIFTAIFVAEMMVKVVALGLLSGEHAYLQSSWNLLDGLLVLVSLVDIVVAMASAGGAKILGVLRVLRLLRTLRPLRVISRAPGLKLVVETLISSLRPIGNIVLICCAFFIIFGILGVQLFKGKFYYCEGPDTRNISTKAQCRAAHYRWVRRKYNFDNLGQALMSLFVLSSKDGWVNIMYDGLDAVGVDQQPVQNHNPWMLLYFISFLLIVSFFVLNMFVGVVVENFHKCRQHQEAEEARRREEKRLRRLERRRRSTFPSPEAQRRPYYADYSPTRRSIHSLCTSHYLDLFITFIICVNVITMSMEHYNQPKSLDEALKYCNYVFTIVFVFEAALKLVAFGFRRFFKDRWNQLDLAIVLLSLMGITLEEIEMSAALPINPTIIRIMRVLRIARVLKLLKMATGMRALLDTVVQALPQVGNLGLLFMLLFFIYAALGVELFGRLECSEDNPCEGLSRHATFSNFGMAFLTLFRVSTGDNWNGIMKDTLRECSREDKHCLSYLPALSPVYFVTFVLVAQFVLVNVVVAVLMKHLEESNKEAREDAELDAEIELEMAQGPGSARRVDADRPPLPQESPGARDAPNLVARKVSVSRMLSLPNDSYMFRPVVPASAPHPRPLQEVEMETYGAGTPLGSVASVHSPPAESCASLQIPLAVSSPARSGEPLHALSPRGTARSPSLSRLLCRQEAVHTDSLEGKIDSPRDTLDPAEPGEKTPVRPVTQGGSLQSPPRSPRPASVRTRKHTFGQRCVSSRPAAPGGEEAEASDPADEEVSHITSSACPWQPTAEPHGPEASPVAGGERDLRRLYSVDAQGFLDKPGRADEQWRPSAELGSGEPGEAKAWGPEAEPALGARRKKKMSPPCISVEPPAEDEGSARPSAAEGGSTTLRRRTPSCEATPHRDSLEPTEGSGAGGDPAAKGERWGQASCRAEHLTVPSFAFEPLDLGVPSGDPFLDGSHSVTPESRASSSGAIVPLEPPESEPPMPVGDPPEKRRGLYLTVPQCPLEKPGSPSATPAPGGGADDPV
DNA (cytosine-5)-methyltransferase 1, sequence (P26358 whole entry): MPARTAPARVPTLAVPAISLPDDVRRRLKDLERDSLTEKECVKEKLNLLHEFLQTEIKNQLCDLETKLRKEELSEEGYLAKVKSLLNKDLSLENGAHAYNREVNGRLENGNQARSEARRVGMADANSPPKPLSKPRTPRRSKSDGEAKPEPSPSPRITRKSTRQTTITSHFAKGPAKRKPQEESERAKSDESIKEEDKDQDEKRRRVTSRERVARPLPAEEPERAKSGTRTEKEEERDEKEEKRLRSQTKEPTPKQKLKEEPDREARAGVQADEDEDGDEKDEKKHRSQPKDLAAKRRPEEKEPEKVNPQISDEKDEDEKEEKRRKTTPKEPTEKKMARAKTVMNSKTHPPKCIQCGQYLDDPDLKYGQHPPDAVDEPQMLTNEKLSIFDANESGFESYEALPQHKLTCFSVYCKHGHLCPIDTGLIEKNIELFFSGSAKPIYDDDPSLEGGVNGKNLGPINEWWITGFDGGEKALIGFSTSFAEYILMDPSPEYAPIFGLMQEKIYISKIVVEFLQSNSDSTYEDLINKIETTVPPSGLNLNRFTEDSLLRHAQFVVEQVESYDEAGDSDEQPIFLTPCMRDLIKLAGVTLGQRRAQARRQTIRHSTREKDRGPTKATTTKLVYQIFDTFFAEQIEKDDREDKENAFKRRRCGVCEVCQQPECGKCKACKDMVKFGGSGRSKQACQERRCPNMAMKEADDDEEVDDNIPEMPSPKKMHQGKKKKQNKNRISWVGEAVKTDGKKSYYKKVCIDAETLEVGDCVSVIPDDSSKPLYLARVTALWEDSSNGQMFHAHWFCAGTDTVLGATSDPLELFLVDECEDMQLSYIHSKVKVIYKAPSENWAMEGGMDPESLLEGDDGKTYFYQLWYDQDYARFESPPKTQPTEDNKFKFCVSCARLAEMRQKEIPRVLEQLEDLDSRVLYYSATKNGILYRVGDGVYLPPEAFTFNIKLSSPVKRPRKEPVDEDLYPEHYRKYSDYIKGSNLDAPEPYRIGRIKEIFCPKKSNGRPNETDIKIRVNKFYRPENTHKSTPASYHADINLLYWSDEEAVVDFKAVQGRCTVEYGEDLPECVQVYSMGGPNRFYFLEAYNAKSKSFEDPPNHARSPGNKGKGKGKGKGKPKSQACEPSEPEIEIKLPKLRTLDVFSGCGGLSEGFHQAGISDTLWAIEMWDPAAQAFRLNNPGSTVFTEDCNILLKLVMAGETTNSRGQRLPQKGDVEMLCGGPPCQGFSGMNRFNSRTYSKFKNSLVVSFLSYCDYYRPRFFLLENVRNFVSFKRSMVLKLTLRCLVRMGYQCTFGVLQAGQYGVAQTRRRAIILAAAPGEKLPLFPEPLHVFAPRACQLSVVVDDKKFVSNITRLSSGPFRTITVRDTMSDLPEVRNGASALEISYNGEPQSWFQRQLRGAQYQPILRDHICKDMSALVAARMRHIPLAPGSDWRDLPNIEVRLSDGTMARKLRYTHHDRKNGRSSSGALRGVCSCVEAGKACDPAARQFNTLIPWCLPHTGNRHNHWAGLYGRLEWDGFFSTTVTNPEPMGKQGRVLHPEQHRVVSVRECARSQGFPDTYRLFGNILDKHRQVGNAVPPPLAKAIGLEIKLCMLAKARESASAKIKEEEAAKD
NADPH oxidase 1, sequence (Q9Y5S8 whole entry): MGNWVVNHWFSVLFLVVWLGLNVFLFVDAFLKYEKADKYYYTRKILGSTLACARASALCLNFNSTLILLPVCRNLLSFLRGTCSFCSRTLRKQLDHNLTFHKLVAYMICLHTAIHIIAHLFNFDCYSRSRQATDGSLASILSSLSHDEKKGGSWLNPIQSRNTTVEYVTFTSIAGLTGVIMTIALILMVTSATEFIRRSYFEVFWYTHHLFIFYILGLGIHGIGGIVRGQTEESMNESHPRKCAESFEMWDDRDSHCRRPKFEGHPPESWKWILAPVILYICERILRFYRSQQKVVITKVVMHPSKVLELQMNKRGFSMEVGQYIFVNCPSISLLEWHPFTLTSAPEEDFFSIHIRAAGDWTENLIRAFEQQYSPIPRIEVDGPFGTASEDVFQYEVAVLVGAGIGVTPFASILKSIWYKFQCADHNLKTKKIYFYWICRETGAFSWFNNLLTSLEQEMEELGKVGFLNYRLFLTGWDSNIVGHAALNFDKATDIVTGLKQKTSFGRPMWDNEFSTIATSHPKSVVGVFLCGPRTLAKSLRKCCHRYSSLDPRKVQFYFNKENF
Bifunctional protein GlmU, sequence (P9WMN3 whole entry): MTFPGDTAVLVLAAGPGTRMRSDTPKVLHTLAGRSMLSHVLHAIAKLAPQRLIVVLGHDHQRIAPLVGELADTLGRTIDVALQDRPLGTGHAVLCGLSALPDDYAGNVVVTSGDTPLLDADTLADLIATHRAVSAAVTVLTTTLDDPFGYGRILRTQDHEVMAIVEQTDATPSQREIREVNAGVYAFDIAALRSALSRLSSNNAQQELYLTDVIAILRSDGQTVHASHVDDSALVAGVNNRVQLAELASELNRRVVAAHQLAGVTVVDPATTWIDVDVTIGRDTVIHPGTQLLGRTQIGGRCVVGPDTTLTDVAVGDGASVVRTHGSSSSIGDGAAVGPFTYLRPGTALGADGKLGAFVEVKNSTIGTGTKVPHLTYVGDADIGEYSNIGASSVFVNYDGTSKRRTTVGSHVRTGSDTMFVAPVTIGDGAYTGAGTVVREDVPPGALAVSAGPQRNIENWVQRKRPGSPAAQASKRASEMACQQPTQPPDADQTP

Clc1ccc(CO/N=C(\Cn2ccnc2)c2ccc(Cl)cc2Cl)c(Cl)c1 [OXICONAZOLE NITRATE]
EC50 [1]: 1.92 µM (active)
IC50 [2]: > 40 µM (inactive)
EC50 [3]: 3.82 µM (active)
IC50 [4]: > 40 µM (inactive)

CCCN1C[C@H](C)[C@@H](OC)CN(C)C(=O)c2cc(NC(=O)Nc3cccc(F)c3)ccc2OC[C@H]1C
AC50 [5]: 2.11 µM (active)
AC50 [6]: 2 µM (active)
AC50 [7]: 2.47 µM (active)
AC50 [8]: 1.61 µM (active)
AC50 [9]: 15.2 µM (active)
AC50 [10]: 42.2 µM (active)
AC50 [11]: 0.469 µM (active)

Cc1ccc(NC(=O)CN2C(=O)N/C(=C\c3cccn3-c3cccc(C(=O)O)c3)C2=O)cc1
EC50 [12]: > 300 µM (not active)
IC50 [13]: > 100 µM (active)
IC50 [14]: 2.2 µM (active)
AC50 [15]: 28 µM (active)
EC50 [16]: 54 µM (active)
IC50 [17]: 6.05 µM (active)
IC50 [18]: 103 µM (active)

CCN(Cc1ccccc1)S(=O)(=O)c1ccc(C(=O)Nc2nnc(C3CC3)o2)cc1
EC50 [19]: 13.7 µM (active)
CC50 [20]: 20.2 µM (active)
EC50 [21]: > 120 µM (not active)
EC50 [22]: 12.6 µM (active)
EC50 [23]: 25.3 µM (active)
EC50 [24]: 9.37 µM (active)
EC50 [25]: 8.9 µM (active)

O=C1N[C@@H](c2ccccc2)COC(=O)[C@@H](Cc2ccc(F)cc2)C/C=C\C[C@H]1CC(=O)N(CCO)Cc1ccccc1
IC50 [26]: > 109 µM (inactive)
IC50 [27]: 37.8 µM (inactive)

Cc1cccc(-c2ccc(CN(C)C[C@@H]3Oc4cc(C#C[C@@H](C)O)ccc4S(=O)(=O)N([C@@H](C)CO)C[C@@H]3C)cc2)c1
AC50 [28]: 0.15 µM (active)
AC50 [29]: 1.85 µM (active)
AC50 [30]: 35.5 µM (active)
AC50 [31]: 1.48 µM (active)

N[C@@H]1C[C@H]1c1ccccc1 [TRANYLCYPROMINE HYDROCHLORIDE]
EC50 [32]: 0.611 µM (active)
IC50 [33]: > 33.3 µM (inactive)
EC50 [34]: > 29.9 µM (inactive)
IC50 [35]: 2.1 µM (active)
IC50 [36]: > 29.9 µM (inactive)
IC50 [37]: > 33.3 µM (inactive)

CCCCCCNC(=O)n1cc(F)c(=O)[nH]c1=O [CARMOFUR]
IC50 [38]: > 10 µM (inactive)
IC50 [39]: > 10 µM (inactive)

Cc1cc(-c2csc(N)n2)c(C)n1C
IC50 [40]: 26 µM (active)
IC50 [41]: > 20 µM (inactive)

CCN1c2ccccc2S(=O)(=O)c2ccccc21
IC50 [42]: > 50 µM (not active)

COC(=O)CCCCCCC(=O)N1CC[C@@H]2[C@@H](CO)N(C)c3ccc(-c4cccc(F)c4)cc3[C@@H]21
AC50 [43]: > 52 µM (inactive)
AC50 [44]: 46.1 µM (active)
